“Also recorded” adds a separate entry of the source.

The source of these data is patent US7638284B2, “Immunoglobulin A inducing protein and uses therefor” (The Curators of the University of Missouri, priority 2000, dated 2009).

The test system of one assay is IGIP mRNA. Kind of assay: Taqman RT-PCR relative quantification of steady state IGIP mRNA in PMA stimulated cell subsets. The format is cell-based, bovine. To be noted: 5 ng/ml PMA for 18 hours. The source says: Selective IgA deficiency (IgAD) is the most common primary immunodeficiency. […] To determine if abnormalities of IGIP production, function or cellular responsiveness to IGIP are altered in all or a subpopulation of patients with IgAD, a sampling approach is used to screen as many clinical and immunological types of adult subjects as possible for IGIP abnormalities. The relative contribution of PBMC-derived populations can be ranked based on quantitative PCR assessment of resting versus phorbol ester stimulated bovine cells; DC>B cells>T cells>monocytes (see Table VI below).
(In general: Real-time PCR tracks product formation cycle by cycle.)

In a further assay the test system is peripheral blood B cells. Kind of assay: Bovine B cell bioassay (CD40L-DAP3 cells + IL-2, 7 days) with ELISA for secreted IgA, IgM, IgG. The format is cell-based.
Another assay relates to sIgD+ B cells. Kind of assay: Bioassay for IGIP activity on naive human B cells (CD40L, IL-2, with or without IL-10; ELISA day 14). The format is cell-based. The method, then:
Total PBMC's were isolated from normal healthy donors via gradient centrifugation and labeled with biotinylated mouse monoclonal antibody (mAB) to human IgD. Pure sIgD^+ B cells were then isolated with Streptavidin-coated Microbeads using an AutoMACS magnetic cell sorter.
Enriched sIgD^+ B cells were cultured in RPM1 1640 (supplemented with 10% FBS, 2 mM L-glutamine, 100 U/ml penicillin and 100 μg/ml streptomycin) at 0.8-1.0×10^5 cells/well in 96-well plates. B cells were co-cultured at a 4:1 ratio with mitomycin C treated DAP3 cells stably transfected with CD40L and 50 ng/ml IL-2, with or without 50 ng/ml IL-10. Cell cultures were then stimulated with 0.1, 1.0 or 10 ng/ml IGIP, 1.0 ng/ml TGF-β, or left unstimulated. Culture supernatants were assayed for secreted immunoglobulins (IgM, IgG, and IgA) by ELISA on day 14.

[1] abbreviates: in the presence of IL-10, CD40L + IL-2, IGIP 0.1 to 10 ng/ml, TGF-β 1 ng/ml, 14 days.

Procedure for peripheral blood B cells: Peripheral blood mononuclear cells (PBMCs) were isolated from the peripheral blood of 6-12 month old Holstein or Angus heifers or steers by incubating 30 ml of red cell lysis buffer (0.15 NH4Cl, 10 mM KHCO3, 1 mM EDTA, H2O) with 20 ml of blood for 20 minutes at room temperature. During this incubation, carbonyl iron (0.1 μg/ml) was added to the blood mixture for 20 minutes and then exposed to a magnetic field for 2 minutes to remove phagocytic cells. Following incubation, the cells were washed 3 times with Hank's buffered salt solution (HBSS). B lymphocytes were enriched by panning in the presence of 3% bovine serum albumin (BSA, Fraction V, Sigma, St. Louis, Mo.) in HBSS as described in Severson et al. (1987). Briefly, PBMCs were resuspended at a concentration of 1×10^7 cells/ml in panning solution (3% BSA, 10 mM Tris, 50 μg/ml gentamicin, 0.0025 mM CaCl2, and 0.002 mM MgCl2 in HBSS) and allowed to adhere to plastic tissue culture plates for 1 hour. Non-adherent cells were removed by washing twice with HBSS and adherent cells (enriched B cells) were harvested by vigorous pipetting. 1×10^5 B cells and 2×10^4 mitomycin C treated CD40L-DAP3 transfected cells were cultured for 7 days in 96-well plates in 2001 μl final volume complete medium (RPMI 1640) and 10% immunoglobulin free normal horse serum with 1 ng/ml recombinant huIL-2 (Peppro Tech Inc., Rocky Hill, N.J.) and 10% culture supernatant from cells transfected with library plasmids. Where indicated, pre-committed B cells and residual T cells were depleted by incubating panned B cells for 30 minutes on ice with 30 μl each of mouse anti-bovine IGA (Serotec, Raleigh, N.C.), mouse anti-bovine IgG1 (Serotec), mouse anti-bovine IgG2 (Serotec), and MM1A (anti-CD3 antibody, VMRD, Pullman, Wash.). The cells were washed 3 times with HBSS and sheep anti-mouse IgG Dynabeads (Dynal, Oslow, Norway) were added according to the manufacturer's instructions. The B cells were then placed in a magnetic field and the non-adherent cells removed. These cells were next incubated on ice for 30 minutes with biotinylated goat anti-bovine IgM (Kirkegard and Perry (KPL), Gaithersburg, Md.), washed 3 times and streptavidin beads (Dynal) were added according to the manufacturer's instructions. The cells were placed on a magnetic field and the adherent cells (IgM^+ B cells) were harvested. All bioassays were performed in triplicate in 96-well Corning flat bottom plates.
Other reagents used in these studies were goat anti-bovine IgM (5 μg/ml, KPL) and porcine TGF-β (1 ng/ml, R & D Systems, Minneapolis, Minn.) that had been acid-activated according to the manufacturer's instructions. […]

With `CCCCCCCCCCCCCC(=O)O[C@@H]1[C@@H](C)[C@@]2(O)[C@@H](C=C(CO)C[C@]3(O)C(=O)C(C)=C[C@@H]23)[C@@H]2C(C)(C)[C@]12OC(C)=O` [PMA, phorbol myristic acetate], the “IGIP mRNA fold increase, stimulated vs unstimulated” value with IGIP mRNA (CD3+ cells) came out at 2.03 fold; in the assay on IGIP mRNA (CD14+ cells), 0.64 fold; in the assay on IGIP mRNA (CD21+ cells) it was 7.6 fold; in the assay with IGIP mRNA (DC), 7205 fold. In addition, the “IGIP mRNA, relative quantification, stimulated cells” value in the assay with IGIP mRNA (CD3+ cells) is 4.79 × 10^−5; in the assay with IGIP mRNA (CD14+ cells), 1.00 × 10^−5; in the assay on IGIP mRNA (CD21+ cells) it was 3.65 × 10^−4; in the assay with IGIP mRNA (DC) it was 0.263.

As to “TGF-β: porcine TGF-β (1 ng/ml, R & D Systems), acid-activated”, the “effect on IgA production (in words)” value in the assay with peripheral blood B cells (B cells stimulated via CD40L + IL-2 (CD40 alone)) is on record as “less IgA production; also recorded: decreased IgA production”; in the assay with peripheral blood B cells (B cells stimulated via CD40 and anti-IgM (BCR)), “induced IgA production”. In addition, the “IgA production over that of B cells stimulated via CD40L + anti-IgM + IL-2 alone” value in the assay on peripheral blood B cells (Table IV experiment 2, dual stimulation CD40 and BCR) is reported as 10 fold.

For the compound “IGIP: human homolog of IGIP, 0.1 to 10 ng/ml on naive human IgD+ B cells (Example III) (MKKRSVSGCNITIFAVMFSHLSAGKSPCGNQANVLCISRLEFVQYQS)”, in the assay on sIgD+ B cells (IL-10, CD40L dependent, B-cell-receptor independent), the “IgA production by naive IgD+ B cells (in words)” value is given as “enhanced IgA production”. Moreover, the “number of IgA producing cells compared with TGF-β” value with sIgD+ B cells (in the presence of IL-10) is listed as “greater number of IgA producing cells”. Besides, in the assay with sIgD+ B cells (setting [1]), the “IgA production, level relative to TGF-β” value is 4-6 fold; the “IgG production, level relative to TGF-β” value was 4-6 fold; the “IgM production, level relative to TGF-β” value is on record as 4-6 fold.
